A short description of this data set: Evaluation of solubility in organic solvent. The conditions noted are these: toluene/2-propanol mixed solvent. Type of data set: physicochemical. The method, then:
Compounds 1 to 2 or Comparative Compounds 1 to 5 were respectively added to a mixed solvent of toluene/2-propanol=3/7 (mass ratio) at room temperature (25° C.) so as to have a concentration of 8% by mass, and stirred for 10 minutes with a rotor without heating or cooling. The state of dissolution was then visually observed, and the solubility was evaluated according to the following criteria.
When any residue was observed, the mixture was heated in a water bath at a constant temperature (40° C.) for 10 minutes as described below, and the state of dissolution was visually observed again to evaluate the solubility.
In the case of `CCCCCCC(CCCCCC)N1C(=O)c2ccc3c4ccc5c6c(ccc(c7ccc(c2c37)C1=O)c64)C(=O)N(C(CCCCCC)CCCCCC)C5=O` [Comparative Compound 2], the “solubility in organic solvents (in words)” value (from here on “solubility”) is reported as “poor solubility”. As to `C=CC(=O)OCCOC(=O)CCC(=O)OCC(CC(C)C)N1C(=O)c2ccc3c4ccc5c6c(ccc(c7ccc(c2c37)C1=O)c64)C(=O)N(C(COC(=O)CCC(=O)OCCOC(=O)C=C)CC(C)C)C5=O` (stereo not shown) [Comparative Compound 3], the “solubility” value is “poor solubility”. As for `C=C(C)C(=O)OCC(COC(=O)C(=C)C)OC(=O)CCC(=O)OCC(CC(C)C)N1C(=O)c2ccc3c4ccc5c6c(ccc(c7ccc(c2c37)C1=O)c64)C(=O)N(C(COC(=O)CCC(=O)OC(COC(=O)C(=C)C)COC(=O)C(=C)C)CC(C)C)C5=O` (stereo not shown) [Comparative Compound 4], the “solubility” value is listed as “excellent solubility in organic solvents”.

`C=C(C)C(=O)OCC(COC(=O)C(=C)C)OC(=O)CCC(=O)OCC(COC(=O)CCC(=O)OC(COC(=O)C(=C)C)COC(=O)C(=C)C)N1C(=O)c2ccc3c4ccc5c6c(ccc(c7ccc(c2c37)C1=O)c64)C(=O)N(C(COC(=O)CCC(=O)OC(COC(=O)C(=C)C)COC(=O)C(=C)C)COC(=O)CCC(=O)OC(COC(=O)C(=C)C)COC(=O)C(=C)C)C5=O` [Comparative Compound 5]: the “solubility” value is listed as “excellent solubility in organic solvents”.

Source of the values: patent US20250320211A1, “COMPOUND, COMPOSITION, AND ELECTROPHOTOGRAPHIC PHOTORECEPTOR” (MITSUBISHI CHEMICAL CORPORATION, priority 2022, published 2025).
